Data from ChEMBL document CHEMBL1152051, “Synthesis and preliminary pharmacological evaluation of 2-benzyloxy substituted aryl ketones as 5-HT4 receptor antagonists” (Bioorg Med Chem Lett, 1994).

Key:
[1] = target: 5-hydroxytryptamine receptor 4 (Cavia porcellus, UniProt O70528); assay: Compound was tested for binding affinity against 5-HT4 receptor in guinea pig striata using [3H]GR-113808 as radioligand
[2] = target: 5-hydroxytryptamine receptor 4 (Rattus norvegicus) (UniProt Q62758); assay: Compound was tested against 5-HT4 receptor through antagonism of 5-HT mediated relaxation of rat, carbachol contracted esophageal muscularis mucosae; assay type: functional
[3] = target: 5-hydroxytryptamine receptor 4 (Rattus norvegicus, UniProt Q62758); assay: Compound was tested against 5-HT4 receptor through agonism of 5-HT mediated relaxation of rat, carbachol contracted esophageal muscularis mucosae; assay type: functional
Sequence of 5-hydroxytryptamine receptor 4 (Rattus norvegicus, UniProt Q62758) (Q62758 whole entry): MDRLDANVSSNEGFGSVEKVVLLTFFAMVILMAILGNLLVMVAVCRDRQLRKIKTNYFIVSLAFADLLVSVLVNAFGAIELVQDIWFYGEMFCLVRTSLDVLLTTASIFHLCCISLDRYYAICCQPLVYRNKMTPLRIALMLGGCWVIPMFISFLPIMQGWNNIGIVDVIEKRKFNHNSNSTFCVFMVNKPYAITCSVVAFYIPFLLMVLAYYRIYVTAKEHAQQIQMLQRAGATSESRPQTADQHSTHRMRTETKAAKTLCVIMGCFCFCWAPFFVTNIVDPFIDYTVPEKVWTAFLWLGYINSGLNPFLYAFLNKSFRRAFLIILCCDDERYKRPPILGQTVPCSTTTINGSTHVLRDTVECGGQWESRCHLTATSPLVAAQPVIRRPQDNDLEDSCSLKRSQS

Sequence of 5-hydroxytryptamine receptor 4 (Cavia porcellus, UniProt O70528) (O70528 whole entry): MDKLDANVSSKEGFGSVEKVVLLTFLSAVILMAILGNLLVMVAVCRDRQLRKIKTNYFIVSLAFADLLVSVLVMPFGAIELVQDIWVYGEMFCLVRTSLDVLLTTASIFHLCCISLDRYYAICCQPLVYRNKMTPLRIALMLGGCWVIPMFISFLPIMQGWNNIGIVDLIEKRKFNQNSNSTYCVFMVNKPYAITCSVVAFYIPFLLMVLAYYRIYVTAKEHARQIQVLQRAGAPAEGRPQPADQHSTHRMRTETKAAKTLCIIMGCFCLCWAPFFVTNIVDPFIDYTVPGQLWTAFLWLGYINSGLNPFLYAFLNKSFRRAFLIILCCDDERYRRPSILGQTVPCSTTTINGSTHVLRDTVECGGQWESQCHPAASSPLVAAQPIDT
Sequence of 5-hydroxytryptamine receptor 4 (Rattus norvegicus) (Q62758 whole entry): as the sequence (Q62758 whole entry) above

SMILES | Ki [1] | pKb [2] | EC50 [3]
COc1cc(COc2cc(N)c(Cl)cc2C(=O)CCC2CCN(CCNS(C)(=O)=O)CC2)cc(OC)c1 | 0.741 nM | 9.2 | 
COc1cc(COc2cc(N)c(Cl)cc2C(=O)CCCCN2CCC(NS(C)(=O)=O)CC2)cc(OC)c1 |  | 8.4 | 
COc1cc(COc2cc(N)c(Cl)cc2C(=O)CCCCN2CCC(c3ccccc3)CC2)cc(OC)c1 |  | 7.7 | 
COc1cc(COc2cc(N)c(Cl)cc2C(=O)CCCCN2CCC(CCNS(C)(=O)=O)CC2)cc(OC)c1 |  | 8.1 | 
COc1cc(COc2cc(N)c(Cl)cc2C(=O)CCCCN2CCC(OC)CC2)cc(OC)c1 |  | 8.4 | 
COc1cc(COc2cc(N)c(Cl)cc2C(=O)CCCCN2CCC(NC(N)=O)CC2)cc(OC)c1 |  | 8.5 | 
Cn1cc(C(=O)OCC2CCN(CCNS(C)(=O)=O)CC2)c2ccccc21 |  | 9 | 
COc1ccc(COc2cc(N)c(Cl)cc2C(=O)CCCCN2CCCCC2)cc1OC |  | 8.5 | 
COc1cc(COc2cc(N)c(Cl)cc2C(=O)CCC2CCN(CCCNS(C)(=O)=O)CC2)cc(OC)c1 | 0.339 nM | 8.8 | 
COc1cc(COc2cc(N)c(Cl)cc2C(=O)CCCCN2CCC(O)CC2)cc(OC)c1 |  | 8.3 | 
COc1ccc(COc2cc(N)c(Cl)cc2C(=O)CCCCN2CCCCC2)cc1 |  | 8.4 | 
CCCCCN1CCC(CCC(=O)c2cc(Cl)c(N)cc2OCc2cc(OC)cc(OC)c2)CC1 | 0.813 nM | 9.1 | 
CCOc1cc(N)c(Cl)cc1C(=O)CCCCN1CCCCC1 |  | < 7 | 

The remaining lines, values ahead:

Ki [1] | pKb [2] | EC50 [3] | SMILES
 | 6.8 |  | COc1ccc(CCOc2cc(N)c(Cl)cc2C(=O)CCCCN2CCCCC2)cc1OC
0.479 nM | 8.9 |  | CCCCN1CCC(CCC(=O)c2cc(Cl)c(N)cc2OCc2cc(OC)cc(OC)c2)CC1
 | 7.7 |  | CCCC1CCN(CCCCC(=O)c2cc(Cl)c(N)cc2OCc2cc(OC)cc(OC)c2)CC1
0.0129 nM |  |  | CCCCN1CCC(COC(=O)c2cc(Cl)c(N)c3c2OCCO3)CC1
 | 8.4 |  | COc1cc(COc2cc(N)c(Cl)cc2C(=O)CCCCN2CCC(C(N)=O)CC2)cc(OC)c1
 |  | 39.8 nM | COc1cc(N)c(Cl)cc1C(=O)CCCCN1CCCCC1
0.468 nM | 9.1 |  | COc1cc(COc2cc(N)c(Cl)cc2C(=O)CCC2CCN(CCN(C)S(C)(=O)=O)CC2)cc(OC)c1
 | 8.9 |  | COc1cc(COc2cc(N)c(Cl)cc2C(=O)CCCCN2CCC(CNS(C)(=O)=O)CC2)cc(OC)c1
1.78 nM | 8.1 |  | CS(=O)(=O)NCCN1CCC(CCC(=O)c2cc(Cl)c(N)cc2OCc2ccccc2)CC1
 |  | 2000 nM | CCCOc1cc(N)c(Cl)cc1C(=O)CCCCN1CCCCC1
 | 8.3 |  | COc1cc(COc2cc(N)c(Cl)cc2C(=O)CCCCN2CCC(C)CC2)cc(OC)c1
 | 8.5 |  | COc1cc(COc2cc(N)c(Cl)cc2C(=O)CCCCN2CCCCC2)cc(OC)c1
